Laboratory results taken from PubChem BioAssay AID843 (The Scripps Research Institute Molecular Screening Center, 2007).
Active and inactive are the calls of the source. No rule for the calls is given here.

These compounds were tested on CRE-bla reporter cells, beta-lactamase FRET, activation (assay: activators of CRE-BLA reporter, dose response, counter-screen for S1P2 agonist project, cell-based, beta-lactamase FRET (AID 843)).
`O=C(Nc1ccccn1)Nc1cccs1` was tested, and the EC50 was > 50 µM (inactive).
In the case of `Cc1cccc(C(=O)NC2CC3CCCC(C2)N3C(=O)NC2CCCCC2)c1` (configuration not stated), the EC50 is reported as > 50 µM (inactive).
`O=C1CCCC(O)=C1C=NCCc1ccccc1` was tested, and the EC50 was > 50 µM (inactive).
In the case of `O=c1c(-c2nc3ccccc3s2)cccn1Cc1ccccc1`, the EC50 is reported as 6.82 µM.
For `C=CCn1c(N)cc(=O)nc1SCC(=O)Nc1ccccc1`, the EC50 was > 50 µM (inactive).
For `C(=C\c1ccccc1)/CSc1nnc(-c2ccccc2)n1Cc1ccco1`, the EC50 was > 50 µM (inactive).
With `Nc1c(C(=O)NCCCc2ccccc2)c2nc3ccccc3nc2n1Cc1cccs1` the EC50 was 5.9 µM.
Work on `CCC(C)n1c(NC(=O)c2ccccc2)c(C#N)c2nc3ccccc3nc21` (configuration not stated) yielded an EC50 of 2.95 µM.
`COc1ccc2cc(S(=O)(=O)NCCCN3CCOCC3)ccc2c1` was tested, and the EC50 was > 50 µM (inactive).
In the case of `CCOC(=O)c1cc2ccc(OC)c(OC)c2c(=O)s1`, the EC50 is reported as > 50 µM (inactive).
For `COc1cccc(CNC(=O)CN(c2cc(C)cc(C)c2)S(=O)(=O)c2c(C)noc2C)c1`, the EC50 was > 50 µM (inactive).
With `CCOC(=O)CN(C(=O)CSc1nnc(COc2ccc(OC)cc2)n1C)c1ccccc1` the EC50 was > 50 µM (inactive).
For `CCN(CC)c1ccc(NC(=O)Nc2ccccc2C(F)(F)F)cc1`, the EC50 was > 50 µM (inactive).
`O=c1[nH]c(-c2cccs2)nc2ccccc12` was tested, and the EC50 was > 50 µM (inactive).
In the case of `O=C1SC(c2ccccc2)=N/C1=C/c1ccco1`, the EC50 is reported as > 50 µM (inactive).
`O=S(=O)(c1ccc(N2CCC(c3ccc(Cl)cc3)=N2)cc1)N(CCO)CCO` was tested, and the EC50 was 9.11 µM.
For `Cc1ccccc1-n1c(=O)c(C#N)cc2c(=O)n3ccccc3nc21`, the EC50 was 26.3 µM (inactive).
In the case of `Clc1ccc(-c2ccc(/C=N/Nc3cc(N4CCOCC4)nc(N4CCOCC4)n3)o2)cc1`, the EC50 is reported as 14.5 µM (inactive).
In the case of `COC(=O)c1cn[nH]c1NC(=S)Nc1ccccc1C`, the EC50 is reported as > 50 µM (inactive).
With `Cc1ccc(CNC(=O)CCNC(=O)c2ccco2)cc1` the EC50 was > 50 µM (inactive).
With `Cc1ccc(Cn2cccc(-c3nc4ccccc4s3)c2=O)cc1` the EC50 was 24 µM (inactive).
With `O=C(Cc1c[nH]c2ccccc12)Nc1nc2ccccc2[nH]1` the EC50 was > 50 µM (inactive).
In the case of `COc1ccc(Cn2c(-c3ccco3)nc3oc4cc(OC)ccc4c(=O)c3c2=O)cc1`, the EC50 is reported as > 50 µM (inactive).
`CC(C)CNC(=O)c1c(N)n(Cc2ccc3c(c2)OCO3)c2nc3ccccc3nc12` showed an EC50 of 5.66 µM.
For `Cc1cc(C(=O)CN2C(=O)CCC2=O)c(C)n1Cc1ccccc1`, the EC50 was > 50 µM (inactive).
For `CCOc1cccc(OCCCCn2ccnc2)c1`, the EC50 was > 50 µM (inactive).
In the case of `O=C(NCC1(c2ccccc2)CCCC1)C(=O)N1CCOCC1`, the EC50 is reported as > 50 µM (inactive).
For `Cc1cc(C)c(S(=O)(=O)Nc2ccc(O)cc2)cc1C`, the EC50 was > 50 µM (inactive).
`COCCNC(=O)CN1CCN(C(c2ccccc2)c2ccccc2)CC1` was tested, and the EC50 was > 50 µM (inactive).
`CS(=O)(=O)NCc1nnc(SCC(=O)NC2CCCCC2)n1-c1ccc(F)cc1` was tested, and the EC50 was > 50 µM (inactive).
For `COc1ccccc1CNC(=O)c1c(N)n(CCCN2CCOCC2)c2nc3ccccc3nc12`, the EC50 was 22.9 µM (inactive).
For `O=C(CCC(=O)N1CCc2ccccc21)Nc1ccccc1`, the EC50 was > 50 µM (inactive).
For `Cc1cc(Br)ccc1OCCCCNCCO`, the EC50 was > 50 µM (inactive).
For `Cc1cc(-c2nnc(SCC(=O)NC3CCCC3)o2)no1`, the EC50 was > 50 µM (inactive).
With `CC(C)n1c(=N)c(C(=O)NCCc2ccccc2)cc2c(=O)n3ccccc3nc21` the EC50 was 23.6 µM (inactive).
For `CCC(C)NC(=O)c1c(N)n(Cc2ccc3c(c2)OCO3)c2nc3ccccc3nc12` (configuration not stated), the EC50 was 5.7 µM.
With `Cc1cccc2cc(C(c3nnnn3CC3CCCO3)N3CCc4ccccc4C3)c(=O)[nH]c12` (configuration not stated) the EC50 was > 50 µM (inactive).
With `Cc1ccc(C2CC(=O)c3cnc(N4CCc5ccccc5C4)nc3C2)cc1` (configuration not stated) the EC50 was > 50 µM (inactive).
`Clc1ccc2nc(N3CCNCC3)nc(-c3ccccc3)c2c1` showed an EC50 of 9.98 µM.
`CCCc1nn(-c2cc(Cl)ccc2OC)c2c1C(=O)CCC2` was tested, and the EC50 was > 50 µM (inactive).
`NC(=O)c1ccc(NC(=O)C2CCCO2)cc1` (configuration not stated) was tested, and the EC50 was > 50 µM (inactive).
Compound `O=c1c(-c2nc3ccccc3s2)cccn1Cc1ccc(Cl)cc1` has an EC50 of 3.43 µM.
`CCOC(=O)c1c(C)n(C)c2ccc(OCC(O)Cn3nc(C)cc3C)cc12` (configuration not stated) was tested, and the EC50 was > 50 µM (inactive).
With `O=C(NCc1ccco1)c1cc2ccc(O)cc2oc1=O` the EC50 was 12.7 µM (inactive).
Compound `Clc1ccc(N2N=C(c3cccs3)CC2c2ccco2)cc1` (configuration not stated) has an EC50 of 3.35 µM.
Work on `NS(=O)(=O)c1ccc(N2N=C(c3ccc(Br)cc3)CC2c2ccc(F)cc2)cc1` (configuration not stated) yielded an EC50 of 2.69 µM.
With `COc1cc2c(cc1OC)C1=C(C#N)CCC(=NC(=O)c3ccc(Cl)cc3)N1CC2` the EC50 was 1.64 µM.
`c1ccc(-c2nc3ccccn3c2NCc2ccc3c(c2)OCO3)cc1` was tested, and the EC50 was > 50 µM (inactive).
`c1ccc(OCCSc2nnnn2-c2ccccc2)cc1` was tested, and the EC50 was > 50 µM (inactive).
For `Cc1cc(C)n2cc(CSc3nnnn3-c3ccc(Cl)cc3)nc2n1`, the EC50 was > 50 µM (inactive).
For `COc1cc2c(cc1OC)C1=C(C#N)CCC(=O)N1CC2`, the EC50 was 2.96 µM.
`O=S(=O)(Cc1ccc(Cl)cc1)NCC1CCCO1` (configuration not stated) was tested, and the EC50 was > 50 µM (inactive).
For `CCC(=O)c1cc2c(C)cc(=O)oc2c(C)c1O`, the EC50 was > 50 µM (inactive).
For `CCOCCCNc1nc(=S)[nH]c2cc(OC)c(OC)cc12`, the EC50 was > 50 µM (inactive).
With `N#CCN1CCN(CC(=O)Nc2cccc3ccccc23)CC1` the EC50 was > 50 µM (inactive).
With `Oc1cccc(C(=S)N2CCN(Cc3ccccc3)CC2)c1` the EC50 was > 50 µM (inactive).
In the case of `Cc1cccn2c(=O)c3cc(C(=O)NCCc4ccccc4)c(=N)n(CCCn4ccnc4)c3nc12`, the EC50 is reported as 10.2 µM (inactive).
With `CC(C)CCNC(=O)c1c(N)n(Cc2ccc3c(c2)OCO3)c2nc3ccccc3nc12` the EC50 was 6.45 µM.
For `COc1ccc(C(c2c[nH]c3ccccc23)c2c[nH]c3ccccc23)cc1O`, the EC50 was > 50 µM (inactive).
Work on `CCOC(=O)c1cc2ccc(OC(=O)c3ccco3)cc2oc1=O` yielded an EC50 of 8.74 µM.
For `CN(C)CCCNS(=O)(=O)c1ccc(N2CCC(c3ccc(Cl)cc3)=N2)cc1`, the EC50 was 1.03 µM.
Work on `O=c1c(-c2nc3ccccc3s2)cccn1Cc1ccc(Cl)c(Cl)c1` yielded an EC50 of 3.29 µM.
